This is an account of results in patent publication US7465718B2, “Ansamycins having improved pharmacological and biological properties” (Conforma Therapeutics Corporation, priority 2002, dated 2008).

The target in data set [1] is HSP90 (bis-ANS treated). Put plainly: Biotin-geldanamycin competition binding, bis-ANS treated HSP90.
Data set [2] is described as follows: MTS assay to measure cytotoxicity of PBMC. It counts as cell-based, human. The following applies: human, PBMC, PBMCs without virus, read-out: TC50 (μM) (50% cytotoxicity). On the procedure: PBMC's in 96 well plates that were treated with compounds (without virus) were assayed for cell viability and compound toxicity using an MTS assay (CellTiter 96 Aqueous Non-Radioactivity Cell Proliferation Assay, Promega, Madison; Wis.).
For orientation: Tetrazolium dyes change colour on reduction, which living cells bring about.

Data set [3] deals with HIV-1ROJO. Put plainly: Anti-HIV PBMC assay (reverse transcriptase activity in supernatant). The note with it: for TI (therapeutic index, TC50/IC50): HIV-1ROJO in PBMCs; for IC50: read-out: IC50 (μM) (50% inhibition of virus replication), HIV-1ROJO in fresh human PBMCs, 7 days.
Data set [4] in a line: Water solubility studies (salts dissolved in water at room temperature). It counts as physicochemical. The note with it: thermodynamic from solid, HCl salt, read-out: Solubility of the HCl salt in H2O. As to the method: Various salts were prepared as described in the example section and dissolved in water at room temperature.
The subject of data set [5] is Her-2. The data set is described as follows: HER2 inhibition assay (Her-2 degradation in MCF7 cells, flow cytometry). It counts as cell-based. The following applies: read-out: HER-2 degradation (IC50 nM). As to the method: MCF7 cells are seeded in 24 well plates at a density of approximately 30,000 cells/well and allowed to grow for 16 hours in DMEM supplemented with 10% FBS. Drug is then added at a concentration range of 100 uM to 0.01 uM. Cells are incubated for an additional 24. […] 10,000 events were collected per sample. A fluorescence histogram was generated and the mean fluorescence intensity (mfi) of each sample was determined using Cellquest software. The background was defined as the mfi generated from cells incubated with control IgG, and was subtracted from each sample stained with the HER-2/neu Ab. Percent degradation of Her-2 was calculated as follows: % Her-2 degradation=(mfi HER-2 sample)/(mfi HER-2 untreated cells)×100 Water Solubility Studies
(In general: A flow cytometer gives signals particle by particle.)

Data set [6] addresses rHsp90 (low affinity). The data set is described as follows: Biotin-geldanamycin competition binding, purified native HSP90 protein (rHsp90, low affinity). The following applies: read-out: rHsp90 (low affinity) IC50 nM; inhibition of biotin-GM binding to purified HSP90, 4° C.
Data set [7] concerns HSP90 (cell lysate, high affinity). The data set is described as follows: Biotin-geldanamycin competition binding, HSP90 in cell lysate (high affinity). The note with it: for ratio: rHsp90 (low affinity) IC50 over lysate (high affinity) IC50; for IC50: read-out: Lysate (high affinity) IC50 nM, inhibition of biotin-GM binding to HSP90 in cell lysate, 4° C.

A word on the melting point: it is the temperature, or range, at which the solid turns liquid. As to `CCOP(=O)(NCCCCNC1=C2CC(C)CC(OC)C(O)C(C)/C=C(\C)C(OC(N)=O)C(OC)/C=C\C=C(/C)C(=O)NC(=CC1=O)C2=O)OCC` (centres unmarked), the melting point was 94.8 to 96.2 °C.
Same read-out and setting: for `COC1/C=C\C=C(/C)C(=O)NC2=CC(=O)C(NC(=O)NCc3ccc(F)cc3)=C(CC(C)CC(OC)C(O)C(C)/C=C(\C)C1OC(N)=O)C2=O` (centres unmarked) the value was 175 to 177 °C; for `COC1/C=C\C=C(/C)C(=O)NC2=CC(=O)C(NC(=O)c3snnc3C)=C(CC(C)CC(OC)C(O)C(C)/C=C(\C)C1OC(N)=O)C2=O` (centres unmarked), 157 to 159 °C; for `COC1/C=C\C=C(/C)C(=O)NC2=CC(=O)C(NC(=O)c3c(C)noc3C)=C(CC(C)CC(OC)C(O)C(C)/C=C(\C)C1OC(N)=O)C2=O` (centres unmarked), 190 to 192 °C.
Still for that read-out and setting: under `COC1/C=C\C=C(/C)C(=O)NC2=CC(=O)C(NC(=O)c3cc(C)nn3C)=C(CC(C)CC(OC)C(O)C(C)/C=C(\C)C1OC(N)=O)C2=O` (centres unmarked) stands 193 to 195 °C.
For orientation: IC50 means the concentration that inhibits the measured activity by half. As to `C=CCO/N=C1/[C@@H](OC)C[C@H](C)CC2=C(NC(=O)c3ccccc3)C(=O)C=C(NC(=O)/C(C)=C/C=C\[C@H](OC)[C@@H](OC(N)=O)/C(C)=C/[C@@H]1C)C2=O` (stereo in doubt) [Compound #1011], the values for the IC50 in data set [1] and in data set [3] were 5 µM and 0.2 µM, respectively. For the same compound, in data set [2], the CC50 was determined as 2.9 µM. Besides, in data set [3], the “TI (therapeutic index, TC50/IC50)” value came out at 14.5.
Consider `CO/N=C1/[C@@H](OC)C[C@H](C)CC2=C(NC(=O)c3ccccc3)C(=O)C=C(NC(=O)/C(C)=C/C=C\[C@H](OC)[C@@H](OC(N)=O)/C(C)=C/[C@@H]1C)C2=O` (stereo in doubt) [Compound #1012], for which, in data set [1], the IC50 is 6 µM.
In data set [1], `CCO/N=C1/[C@@H](OC)C[C@H](C)CC2=C(NC(=O)c3ccccc3)C(=O)C=C(NC(=O)/C(C)=C/C=C\[C@H](OC)[C@@H](OC(N)=O)/C(C)=C/[C@@H]1C)C2=O` (stereo in doubt) [Compound #1013] yielded an IC50 of 5.2 µM.
The term solubility denotes how much of the substance goes into solution per volume. Consider `C=CCNC1=C2C[C@@H](C)C[C@H](OC)[C@H](O)[C@@H](C)/C=C(\C)[C@H](OC(N)=O)[C@@H](OC)/C=C\C=C(/C)C(=O)NC(=CC1=O)C2=O` [Compound 17-AAG, 17-allyl amino geldanamycin, reference compound], for which, in data set [4], the solubility is < 10 µg/mL. Moreover, the IC50 in data set [5] stood at 5 nM; in data set [3] it was 0.38 µM. The CC50 in data set [2] turned out to be 2.02 µM.
For `COC1/C=C\C=C(/C)C(=O)NC2=CC(=O)C(c3ccccc3)=C(CC(C)CC(OC)C(O)C(C)/C=C(\C)C1OC(N)=O)C2=O` (centres unmarked) [Compound #133, 17-phenyl-geldanamycin], the solubility in data set [4] was < 10 µg/mL. Moreover, the IC50 in data set [5] was 25 nM.
Turning to `COC1C=CC=C(C)C(=O)NC2=CC(=O)C(NCCCN3CCN(CCCNC4=C5CC(C)CC(OC)C(O)C(C)C=C(C)C(OC(N)=O)C(OC)C=CC=C(C)C(=O)NC(=CC4=O)C5=O)CC3)=C(CC(C)CC(OC)C(O)C(C)C=C(C)C1OC(N)=O)C2=O` (centres unmarked) [Compound #207], the melting point came to 162 °C. Besides, the solubility in data set [4] was ≥ 13000 µg/mL. In addition, the IC50 in data set [5] was 12 nM.
Consider `COc1ccccc1C1=C2CC(C)CC(OC)C(O)C(C)/C=C(\C)C(OC(N)=O)C(OC)/C=C\C=C(/C)C(=O)NC(=CC1=O)C2=O` (centres unmarked) [Compound #212, 17-(2-methoxy-phenyl)-geldanamycin], for which the solubility in data set [4] was < 10 µg/mL. Moreover, the 50% inhibitory concentration (IC50) in data set [5] came out at 10 nM.
For `COC1/C=C\C=C(/C)C(=O)NC2=CC(=O)C(c3cccs3)=C(CC(C)CC(OC)C(O)C(C)/C=C(\C)C1OC(N)=O)C2=O` (centres unmarked) [Compound #232, 17-(2-thiophen)-geldanamycin] the same measures were < 10 µg/mL and 80 nM.
`COC1/C=C\C=C(/C)C(=O)NC2=CC(=O)C(NC(=O)c3ccccn3)=C(CC(C)CC(OC)C(O)C(C)/C=C(\C)C1OC(N)=O)C2=O` (centres unmarked) [Compound #529, 17-picolinoyl-aminogeldanamycin] returned a melting point of 195 to 197 °C. For the same compound, in data set [6], the IC50 is 1000 nM. Besides, in data set [7], the ratio is 67 and the IC50 was 15 nM.
`COC1/C=C\C=C(/C)C(=O)NC2=CC(=O)C(NC(=O)c3ccncc3)=C(CC(C)CC(OC)C(O)C(C)/C=C(\C)C1OC(N)=O)C2=O` (centres unmarked) [Compound #530, 17-isonicotinoyl-aminogeldanamycin]: the melting point was in the range of 167 to 169 °C. Further, in data set [4], the solubility is > 2000 µg/mL. For the same compound, the IC50 in data set [5] turned out to be 100 nM.
For the compound `COC1/C=C\C=C(/C)C(=O)NC2=CC(=O)C(NC(=O)c3cc(C)nn3C(C)(C)C)=C(CC(C)CC(OC)C(O)C(C)/C=C(\C)C1OC(N)=O)C2=O` (centres unmarked) [Compound #561, 17-(1-t-butyl-3-methyl-1H-pyrazole-5-carbonyl-amino)-geldanamycin], the melting point was in the range of 216 to 218 °C.
As for `CO[C@H]1/C=C\C=C(/C)C(=O)NC2=CC(=O)C(NC(=O)c3ccc(CN(C)C)cc3)=C(C[C@@H](C)C[C@H](OC)[C@H](O)[C@@H](C)/C=C(\C)[C@@H]1OC(N)=O)C2=O` [Compound #687, 17-(4-dimethylaminomethyl-benzoyl)-aminogeldanamycin], the melting point fell in the range of 203 to 206 °C. In addition, in data set [6], the IC50 turned out to be 2000 nM. Further, in data set [7], the ratio was 250 and the IC50 was 8 nM.
As to `CO[C@H]1/C=C\C=C(/C)C(=O)NC2=CC(=O)C(NC(=O)OCc3ccc(OC(C)=O)cc3)=C(C[C@@H](C)C[C@H](OC)[C@H](O)[C@@H](C)/C=C(\C)[C@@H]1OC(N)=O)C2=O` [Compound #709], in data set [6], the IC50 is 1500 nM. For the same compound, in data set [7], the ratio was 167 and the IC50 amounted to 9 nM.
On to `CO[C@H]1/C=C\C=C(/C)C(=O)NC2=CC(=O)C(NC(=O)OCC(C)C)=C(C[C@@H](C)C[C@H](OC)[C@H](O)[C@@H](C)/C=C(\C)[C@@H]1OC(N)=O)C2=O` [Compound #749], for which the CC50 in data set [2] stood at 1.12 µM. In data set [3], the “TI (therapeutic index, TC50/IC50)” value came to 56.0 and the IC50 amounted to 0.02 µM.
`CO[C@H]1/C=C\C=C(/C)C(=O)NC2=CC(=O)C(NC(=O)c3ccccc3)=C(C[C@@H](C)C[C@H](OC)[C@@H](OC(=O)CBr)[C@@H](C)/C=C(\C)[C@@H]1OC(N)=O)C2=O` [Compound #981] showed an IC50 in data set [1] of 5.5 µM.
Still for that read-out and setting: under `CO[C@H]1/C=C\C=C(/C)C(=O)NC2=CC(=O)C(NC(=O)c3ccccc3)=C(C[C@@H](C)C[C@H](OC)[C@@H](OC(=O)/C=C/c3cccs3)[C@@H](C)/C=C(\C)[C@@H]1OC(N)=O)C2=O` [Compound #982] stands 5.5 µM; under `CO[C@H]1/C=C\C=C(/C)C(=O)NC2=CC(=O)C(NC(=O)c3ccccc3)=C(C[C@@H](C)C[C@H](OC)[C@@H](OC(=O)Cc3ccccc3)[C@@H](C)/C=C(\C)[C@@H]1OC(N)=O)C2=O` [Compound #983], 7 µM.
Still for that read-out and setting: under `CO[C@H]1/C=C\C=C(/C)C(=O)NC2=CC(=O)C(NC(=O)c3ccccc3)=C(C[C@@H](C)C[C@H](OC)[C@@H](OC(=O)Cc3cccs3)[C@@H](C)/C=C(\C)[C@@H]1OC(N)=O)C2=O` [Compound #984] stands 4.2 µM; under `CCCCCC(=O)O[C@@H]1[C@@H](OC)C[C@H](C)CC2=C(NC(=O)c3ccccc3)C(=O)C=C(NC(=O)/C(C)=C/C=C\[C@H](OC)[C@@H](OC(N)=O)/C(C)=C/[C@@H]1C)C2=O` [Compound #985], 12 µM.
